# Columns and labels:
# [1] = system: DS-iPS EC; assay: GDNF ELISA in conditioned media from Down syndrome iPS-derived ECs; type: cell-based, human; details: 2 ng/ml FGF-2
# Procedure: Testis, lung, or liver ECs were plated (10,000 cells ml^−1) on 12 well dishes coated with 0.1% gelatin and cultured for 24 hours. Conditioned media was harvested at 24 and 48 hours after FGF-2 (2 ng ml^−1, 20 ng ml^−1 and 50 ng ml^−1) treatment and analyzed by ELISA for GDNF (Promega GDNF Emax immunoassay system, #G7621) following the manufacturer's instruction. Statistics was analyzed using Graph Pad Prism. For quantification of Gdnf mRNA, total RNA was isolated from the cells using Direct-zol RNA MiniPrep (Zymo Research) and reverse transcribed using High Capacity cDNA Reverse Transcription Kit (Appliedbiosystems), according to the manufacturer's instructions. All gene expression levels were normalized to GAPDH mRNA levels.
# To generate iPSC lines, either human fibroblasts/stromal cells were transduced with pMXs-based retroviral supernatant with human OCT4, SOX2, KLF4, or MYC as described^30, or mononuclear cells were infected with pHage2-CMV-RTTA-W and pHage-Tet-hSTEMMCA-loxP virus as described^31. All cells were culture on 0.1% gelatin-coated dishes in human endothelial cell medium (Lonza; EGM®-MV Bulletkit) with 50 ng ml^−1 additional VEGF. 500,000 disaggregated single embryonic bodies from human iPSCs were cultured for 48 hours. Non-adherent cells were gently removed and adherent cells were cultured for 1-2 passages. […]
# [2] = system: EGR-1; assay: Western blot of EGR-1 expression in LuECs; type: cell-based, mouse; details: LuEC
# From the text: FIG. 5. GDNF expression in TECs is regulated by CaN-NFAT signaling. a. Immunouorescence images of testis sections immunostained with the stem cell markers DDX4 and Oct4 and DAPI to stain DNA. Testes were harvested from 1-week-old or 4-week-old Euploid or Ts65Dn mice. Quantication of DDX4+ and Oct4+ cells relative to DAPI per high-powered eld (HPF) is shown on the right, ***P<0.0001. Bar=50 μm. Two-way ANOVA test. b. […] Values are mean±s.e.m. n=4. c. Quantication of GDNF levels by ELISA in conditioned media from murine TECs, LuEC and LiEC after 2 ngml-1 FGF-2 treatment in the presence or absence of CsA. Values are mean±s.e.m., n=4. d. H&E-stained cross-sections from testes of age-matched Euploid, Ts65Dn or Ts65Dn mice 5 weeks after implantation with GFP+ TECs isolated from syngeneic wild-type mice (Ts65Dn+GFP+ TECs). Red dotted line encircles mature sperm (yellow arrow) in the lumen of the seminiferous tubules. Immunouorescence images with GFP and DAPI to stain DNA of testis sections from Ts65Dn+GFP+TECs mice. e. Western blot analysis of EGR-1 protein expression in TECs and LuECs untreated or after FGF-2 treatment, expression of constitutively active NFATc1 (caNFATc1) or an empty vector control. Actin was probed as a loading control. f. Quantication of nuclear translocation of EGR1 and NFATc1 in TECs after treatment with conditioned media (CM), 2 ng ml-1 FGF-2±CsA. Values are mean±s.e.m. g. […]
substance,measurement,setting,value
fibroblast growth factor-2 [FGF-2],GDNF production after FGF2 treatment,[1],relatively modest induction of GDNF
same,EGR-1 expression after FGF-2 treatment,[2],not

# Source: patent US20210386792A1, “A METHOD FOR INCREASING POPULATION OF SPERMATOGONIAL STEM CELLS” (priority 2018, published 2021)
